We go through ten compounds from patent US9617256B2 (priority 2007, dated 2017).

The subject of assay [1] is ASAU001 (laboratory strain of S. aureus, ATCC29213). Nature of the assay: MIC broth microdilution, ASAU001. Type of assay: cell-based. The following applies: Staphylococcus aureus, ATCC29213, read-out: MIC ASAU001. Summed up: (§1)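 Strains were grown overnight at 35° C. on Mueller-Hinton agar, suspended to 0.5 McFarland and diluted to a final 3×10^5–7×10^5 CFU/mL. They were then exposed to 2-fold serial drug dilutions in cation-adjusted Mueller-Hinton broth and incubated 18-24 hours at 35° C.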
For orientation: Broth dilution looks for growth in wells or tubes with falling amounts of substance.

For assay [2], the system named is APAE001 (ATCC27853). Nature of the assay: MIC broth microdilution, APAE001. Type of assay: cell-based, P. aeruginosa. The following applies: Pseudomonas aeruginosa, ATCC27853, read-out: MIC APAE001, APAE001 (ATCC27853). Summed up: as §1
The subject of assay [3] is AABA1060 (clinical isolate of Acinetobacter baumannii). Put plainly: MIC broth microdilution, AABA1060. Type of assay: cell-based. The following applies: Acinetobacter baumannii, read-out: MIC AABA1060. Put shortly:
as §1

Assay [4] concerns AECO001 (ATCC25922). Nature of the assay: MIC broth microdilution, AECO001. The assay is classed as cell-based, E. coli. The following applies: Escherichia coli. Summed up:
as §1

Assay [5] concerns APAE006 in the presence of 8 micrograms per milliliter of polymyxin B nonapeptide. The assay is classed as cell-based, P. aeruginosa. The following applies: APAE006 with 8 micrograms per milliliter polymyxin B nonapeptide. Put shortly: (§2)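 CLSI broth microdilution in cation-adjusted Mueller-Hinton broth, final inoculum 3×10^5–7×10^5 CFU/mL, 2-fold drug dilutions, 18-24 hours at 35° C. in ambient air. APAE006 is an efflux-pump-inactivated P. aeruginosa strain. Assay performance monitored with QC strains and levofloxacin.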

Assay [6] relates to AECO063 (ATCC25922 bearing an acrAB mutation). Put plainly: microbe, parasite or virus in culture. Particulars: Escherichia coli, ATCC25922, read-out: MIC AECO063. The assay is classed as cell-based, E. coli. Put shortly:
as §1

For assay [7], the system named is APAE006 (strain of P. aeruginosa in which all efflux pumps are inactivated). Nature of the assay: microbe, parasite or virus in culture. The assay is classed as cell-based. Particulars: Pseudomonas aeruginosa, read-out: MIC APAE006, APAE006, all efflux pumps inactivated. Summed up: as §2
The mark [8] stands for this setting: ATCC25922, read-out: MIC AECO001.
Setting [9] is: ATCC25922, read-out: MIC AECO001 HSA AGP.

Values after ≈ are worked out from the molar mass of the structure shown. Read-outs that look alike come from different tables or passages of the source.

In the case of `C[C@@H](O)[C@H](NC(=O)c1ccc(/C=C/C#Cc2ccccc2F)cc1)C(=O)NO` [Example 114-12], the MIC is 16 to 64 µg/mL (≈ 41.8 to 167 µM) in assay [1]; 2 to 16 µg/mL (≈ 5.23 to 41.8 µM) in assay [2]; less than 2 µg/mL in assay [3]; less than 2 µg/mL in assay [4] (setting [8]); 2 to 16 µg/mL (≈ 5.23 to 41.8 µM) in assay [4] (setting [9]); less than 2 µg/mL in assay [6]. In assay [7], the MIC is less than 2 µg/mL. In addition, the “MIC APAE006 + PMBN” value in assay [5] is listed as “A (MIC's of 2.0 μg/mL or less = A)”.

`C[C@@H](O)[C@H](NC(=O)c1ccc(/C=C/C#Cc2cccnc2)cc1)C(=O)NO` [Example 114-13]: the MIC was 16 to 64 µg/mL (≈ 43.8 to 175 µM) in assay [1]; 2 to 16 µg/mL (≈ 5.47 to 43.8 µM) in assay [2]; 2 to 16 µg/mL (≈ 5.47 to 43.8 µM) in assay [3]; less than 2 µg/mL in assay [4] (setting [8]); 2 to 16 µg/mL (≈ 5.47 to 43.8 µM) in assay [4] (setting [9]); less than 2 µg/mL in assay [6]. Also, the MIC in assay [7] was less than 2 µg/mL. The “MIC APAE006 + PMBN” value in assay [5] is reported as “A (MIC's of 2.0 μg/mL or less = A)”.

As for `C[C@@H](O)[C@H](NC(=O)c1ccc(/C=C/C#Cc2ccccc2)cc1)C(=O)NO` [Example 114-14], the MIC was 16 to 64 µg/mL (≈ 43.9 to 176 µM) in assay [1]; 2 to 16 µg/mL (≈ 5.49 to 43.9 µM) in assay [2]; less than 2 µg/mL in assay [3]; less than 2 µg/mL in assay [4] (setting [8]); 2 to 16 µg/mL (≈ 5.49 to 43.9 µM) in assay [4] (setting [9]); less than 2 µg/mL in assay [6]. For the same compound, the MIC in assay [7] is less than 2 µg/mL. Besides, in assay [5], the “MIC APAE006 + PMBN” value is recorded as “A (MIC's of 2.0 μg/mL or less = A)”.

In the case of `C[C@@H](N)[C@H](NC(=O)c1ccc(/C=C/C#CC2CC2)cc1)C(=O)NO` [Example 114-15], the MIC was 16 to 64 µg/mL (≈ 48.9 to 195 µM) in assay [1]; less than 2 µg/mL in assay [2]; 2 to 16 µg/mL (≈ 6.11 to 48.9 µM) in assay [3]; 2 to 16 µg/mL (≈ 6.11 to 48.9 µM) in assay [4] (setting [8]); 16 to 64 µg/mL (≈ 48.9 to 195 µM) in assay [4] (setting [9]); less than 2 µg/mL in assay [6]. The MIC in assay [7] is less than 2 µg/mL. Further, the “MIC APAE006 + PMBN” value in assay [5] is given as “A (MIC's of 2.0 μg/mL or less = A)”.

`CC(C)(N)[C@H](NC(=O)c1ccc(/C=C/C#Cc2ccccc2)cc1)C(=O)NO` [Example 114-16]: the MIC in assay [1] was 16 to 64 µg/mL (≈ 42.4 to 170 µM); in assay [2], 2 to 16 µg/mL (≈ 5.3 to 42.4 µM); in assay [3] it was less than 2 µg/mL; in assay [4] (setting [8]), less than 2 µg/mL; in assay [4] (setting [9]) it was less than 2 µg/mL; in assay [6], less than 2 µg/mL. Moreover, the MIC in assay [7] was less than 2 µg/mL. The “MIC APAE006 + PMBN” value in assay [5] was “A (MIC's of 2.0 μg/mL or less = A)”.

For `C[C@@H](N)[C@H](NC(=O)c1ccc(/C=C/C#CC2CCCCC2)cc1)C(=O)NO` [Example 114-17], the MIC in assay [1] is 2 to 16 µg/mL (≈ 5.41 to 43.3 µM); in assay [2] it was 2 to 16 µg/mL (≈ 5.41 to 43.3 µM); in assay [3], 2 to 16 µg/mL (≈ 5.41 to 43.3 µM); in assay [4] (setting [8]), less than 2 µg/mL; in assay [4] (setting [9]), 2 to 16 µg/mL (≈ 5.41 to 43.3 µM); in assay [6], less than 2 µg/mL. The MIC in assay [7] was less than 2 µg/mL. The “MIC APAE006 + PMBN” value in assay [5] is “A (MIC's of 2.0 μg/mL or less = A)”.

With `CC(C)(N)[C@H](NC(=O)c1ccc(/C=C/C#CC2CC2)cc1)C(=O)NO` [Example 114-18], the MIC is 16 to 64 µg/mL (≈ 46.9 to 187 µM) in assay [1]; less than 2 µg/mL in assay [2]; less than 2 µg/mL in assay [3]; less than 2 µg/mL in assay [4] (setting [8]); 2 to 16 µg/mL (≈ 5.86 to 46.9 µM) in assay [4] (setting [9]); less than 2 µg/mL in assay [6]. In assay [7], the MIC is less than 2 µg/mL. Moreover, in assay [5], the “MIC APAE006 + PMBN” value was “A (MIC's of 2.0 μg/mL or less = A)”.

For `CC(C)C#C/C=C/c1ccc(C(=O)N[C@H](C(=O)NO)C(C)(C)N)cc1` [Example 114-19], the MIC in assay [1] is 2 to 16 µg/mL (≈ 5.82 to 46.6 µM); in assay [2], less than 2 µg/mL; in assay [3] it was less than 2 µg/mL; in assay [4] (setting [8]), less than 2 µg/mL; in assay [4] (setting [9]), 2 to 16 µg/mL (≈ 5.82 to 46.6 µM); in assay [6], less than 2 µg/mL. In assay [7], the MIC was less than 2 µg/mL. For the same compound, in assay [5], the “MIC APAE006 + PMBN” value is “A (MIC's of 2.0 μg/mL or less = A)”.

`CC(C)(N)[C@H](NC(=O)c1ccc(/C=C/C#CC2CCCC2)cc1)C(=O)NO` [Example 114-20]: the MIC in assay [1] is 2 to 16 µg/mL (≈ 5.41 to 43.3 µM); in assay [2], 2 to 16 µg/mL (≈ 5.41 to 43.3 µM); in assay [3], less than 2 µg/mL; in assay [4] (setting [8]), less than 2 µg/mL; in assay [4] (setting [9]), 2 to 16 µg/mL (≈ 5.41 to 43.3 µM); in assay [6], less than 2 µg/mL. In assay [7], the MIC was less than 2 µg/mL. Also, the “MIC APAE006 + PMBN” value in assay [5] is given as “A (MIC's of 2.0 μg/mL or less = A)”.

Turning to `C[C@@H](N)[C@H](NC(=O)c1ccc(C#Cc2ccc(CN3CCC(F)CC3)cc2)cc1)C(=O)NO` [Example 115-1, N-((2S,3R)-3-amino-1-(hydroxyamino)-1-oxobutan-2-yl)-4-((4-((4-fluoropiperidin-1-yl)methyl)phenyl)ethynyl)benzamide], the MIC in assay [1] was greater than 64 µg/mL; in assay [2], 2 to 16 µg/mL (≈ 4.42 to 35.4 µM); in assay [3] it was 2 to 16 µg/mL (≈ 4.42 to 35.4 µM); in assay [4] (setting [8]), less than 2 µg/mL; in assay [4] (setting [9]), 2 to 16 µg/mL (≈ 4.42 to 35.4 µM); in assay [6] it was less than 2 µg/mL. Also, in assay [7], the MIC was less than 2 µg/mL. The “MIC APAE006 + PMBN” value in assay [5] was “A (MIC's of 2.0 μg/mL or less = A)”.
